# Test results published in patent US20190218226A1, “PRODRUGS OF ANTICANCER AGENTS INDOTECAN AND INDIMITECAN” (Purdue Research Foundation, priority 2016, published 2019).
# Molecular target: T1, Human recombinant Top1 (Homo sapiens, UniProt P11387)
# T1 construct: made in house
# T1 sequence (P11387 1-765): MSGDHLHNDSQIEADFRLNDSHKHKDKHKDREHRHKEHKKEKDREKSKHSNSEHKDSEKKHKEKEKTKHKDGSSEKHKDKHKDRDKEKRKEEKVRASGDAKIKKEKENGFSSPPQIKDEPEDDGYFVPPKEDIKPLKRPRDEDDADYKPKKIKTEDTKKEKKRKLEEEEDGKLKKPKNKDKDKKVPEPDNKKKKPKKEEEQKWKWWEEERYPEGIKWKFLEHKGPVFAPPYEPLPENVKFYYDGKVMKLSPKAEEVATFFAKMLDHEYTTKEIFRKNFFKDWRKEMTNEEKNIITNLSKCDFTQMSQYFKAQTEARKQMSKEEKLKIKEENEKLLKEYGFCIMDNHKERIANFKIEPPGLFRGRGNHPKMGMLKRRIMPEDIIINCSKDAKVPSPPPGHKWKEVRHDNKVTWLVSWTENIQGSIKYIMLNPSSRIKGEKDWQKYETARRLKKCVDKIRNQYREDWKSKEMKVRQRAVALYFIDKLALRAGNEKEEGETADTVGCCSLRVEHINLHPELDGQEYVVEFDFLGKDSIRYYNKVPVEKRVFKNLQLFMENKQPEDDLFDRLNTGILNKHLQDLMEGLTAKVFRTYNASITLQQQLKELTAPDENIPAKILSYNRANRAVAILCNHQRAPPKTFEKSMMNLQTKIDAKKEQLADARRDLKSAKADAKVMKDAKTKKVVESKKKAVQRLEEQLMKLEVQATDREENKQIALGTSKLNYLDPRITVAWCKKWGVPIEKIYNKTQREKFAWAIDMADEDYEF
# Assay: Top1-mediated DNA cleavage assay
# Assay type: biochemical
# Design: key to Top 1 Cleavage: 0, no inhibitory activity; +, between 20 and 50% activities; ++, between 50 and 75% activity; +++, between 75 and 95% activity; ++++, equipotent
# Details: graded relative to 1 μM camptothecin
# How it was run: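 About 2 nM 3′-[32P]-labelled 117-bp DNA incubated with baculovirus-expressed recombinant Top1 at 25 °C for 20 min (Tris pH 7.5, KCl, MgCl2, EDTA, BSA) at four compound concentrations; stopped with 0.5% SDS. Denaturing 20% PAGE, phosphorimaging; cleavage scored semiquantitatively (0 to ++++) against reference compounds.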
compound,measurement,value
"COC(=O)CCC(=O)Oc1cc2c(=O)n(CCCN3CCOCC3)c3c(c2cc1OC)C(=O)c1cc2c(cc1-3)OCO2 [Compound 17, 2-Methoxy-6-(3-morpholinopropyl)-5,12-dioxo-6,12-dihydro-5H-[1,3]dioxolo[4′,5′:5,6]indeno[1,2-c]isoquinolin-3-yl Methyl Succinate]",Top 1 Cleavage,0
